EPA's ToxRefDB 2

How the values were obtained:
rat [1] = settings: Fertility (Segment I), sprague dawley, Oral, Gavage/Intubation, dose end: 1 generation, group: parental
rat [2] = settings: Chronic toxicity; sprague dawley; Oral; Gavage/Intubation; dose end: 182 day; group: systemic; systemic / clinical chemistry / glucose / glucose + systemic / clinical chemistry / triglycerides / triglycerides + systemic / in life …
rabbit [3] = settings: Prenatal developmental toxicity study, Oral, Gavage/Intubation, dose end: 19 GD
dog [4] = settings: Sub-acute repeat dose toxicity; beagle; Oral; Gavage/Intubation; dose end: 30 day; group: systemic; systemic / clinical chemistry / potassium / potassium + systemic / in life observation / clinical signs / emesis + systemic / in life …
rat [5] = settings: Sub-acute repeat dose toxicity, sprague dawley, Oral, Gavage/Intubation, dose end: 14 day, group: systemic
rat [6] = settings: Sub-acute repeat dose toxicity, sprague dawley, Oral, Gavage/Intubation, dose end: 30 day, group: systemic
mouse = settings: Sub-acute repeat dose toxicity, Oral, Feed, dose end: 14 day, group: systemic
rabbit [7] = settings: Sub-acute repeat dose toxicity; new zealand white; Oral; Gavage/Intubation; dose end: 5 day; group: systemic; systemic / in life observation / body weight / body weight + systemic / in life observation / food consumption / food consumption
rat [8] = settings: Fertility (Segment I), sprague dawley, Oral, Gavage/Intubation, dose end: 1 generation, group: parental; remark: listed apart in the source
dog [9] = settings: Sub-acute repeat dose toxicity; beagle; Oral; Gavage/Intubation; dose end: 10 day; group: systemic; systemic / in life observation / clinical signs / abnormal feces + systemic / in life observation / clinical signs / salivation + systemic…
dog [10] = settings: Chronic toxicity; beagle; Oral; Gavage/Intubation; dose end: 364 day; group: systemic; systemic / in life observation / body weight / body weight + systemic / in life observation / clinical signs / arrhythmia + systemic / in …
rat [11] = settings: Sub-acute repeat dose toxicity, sprague dawley, Oral, Feed, dose end: 14 day, group: systemic
[12] = systemic / in life observation / body weight / body weight + systemic / in life observation / clinical signs / salivation + systemic / in …
[13] = systemic / in life observation / body weight / body weight + systemic / in life observation / food consumption / food consumption
[14] = group: developmental, developmental / developmental malformation / bone / delayed ossification + systemic / in life observation / body weight / fetal weight
[15] = group: maternal, systemic / in life observation / body weight / body weight gain + systemic / in life observation / food consumption / food consumption
[16] = systemic / hematology / erythrocyte (rbc) count differential / erythrocyte (rbc) + systemic / hematology / hematocrit (hct) / hematocrit (…
[17] = systemic / in life observation / clinical signs / salivation
[18] = systemic / clinical chemistry / 5' nucleotidase / 5' nucleotidase + systemic / clinical chemistry / [other] / [other] + systemic / clinical …
[19] = systemic / in life observation / body weight / body weight + systemic / in life observation / body weight / body weight gain + systemic / in…
[20] = systemic / in life observation / food consumption / food consumption + systemic / in life observation / body weight / body weight
[21] = systemic / in life observation / food consumption / food consumption + systemic / in life observation / body weight / body weight + systemic…

`O=C(Cc1ccc(Cl)c(Cl)c1)N(O)[C@H](CN1CC[C@H](O)C1)c1ccccc1` was tested, and the LOAEL (rat [1]; [12]) was over 50 mg/kg/day, the NEL (rat [1]; [12]) was 1 mg/kg/day and the NOAEL (rat [1]; [12]) was at least 50 mg/kg/day. It also gave an LEL (rat [1]; [13]) of 10 mg/kg/day, an LOAEL (rat [2]) of over 150 mg/kg/day and an NEL (rat [2]) of 1 mg/kg/day. For the same molecule, the NOAEL (rat [2]) was at least 150 mg/kg/day, the LOAEL (rabbit [3]; [14]) was over 5 mg/kg/day and the NOAEL (rabbit [3]; [14]) was at least 5 mg/kg/day. It also gave an LOAEL (rabbit [3]; [15]) of over 5 mg/kg/day, an NOAEL (rabbit [3]; [15]) of at least 5 mg/kg/day and an LOAEL (dog [4]) of over 1 mg/kg/day. The NOAEL (dog [4]) was at least 1 mg/kg/day, the LOAEL (rat [5]; [16]) was over 500 mg/kg/day and the NOAEL (rat [5]; [16]) was at least 500 mg/kg/day. It also gave an LEL (rat [5]; [17]) of 25 mg/kg/day, an NEL (rat [5]; [17]) of under 25 mg/kg/day and an LOAEL (rat [6]; [18]) of over 150 mg/kg/day. For the same molecule, the NOAEL (rat [6]; [18]) was at least 150 mg/kg/day, the NEL (rat [6]; systemic / clinical chemistry / [other] / [other] + systemic / clinical chemistry / albumin / albumin + systemic / clinical chemistry / …) was 1 mg/kg/day and the LOAEL (mouse; [19]) was over 1000 mg/kg/day. For the same molecule, the NOAEL (mouse; [19]) was at least 1000 mg/kg/day, the LEL (mouse; systemic / in life observation / clinical signs / hunched posture) was 300 mg/kg/day and the LEL (rabbit [7]) was 1 mg/kg/day. For the same molecule, the LOAEL (rabbit [7]) was over 150 mg/kg/day, the NEL (rabbit [7]) was under 1 mg/kg/day and the NOAEL (rabbit [7]) was at least 150 mg/kg/day. It also gave an LOAEL (rat [8]; [12]) of over 50 mg/kg/day, an NEL (rat [8]; [12]) of 1 mg/kg/day and an NOAEL (rat [8]; [12]) of at least 50 mg/kg/day. The LEL (rat [8]; [13]) was 10 mg/kg/day, the LEL (dog [9]) was 1 mg/kg/day and the LOAEL (dog [9]) was over 1 mg/kg/day. For the same molecule, the NEL (dog [9]) was under 1 mg/kg/day, the NOAEL (dog [9]) was at least 1 mg/kg/day and the LEL (dog [10]) was 1 mg/kg/day. It also gave an LOAEL (dog [10]) of over 1 mg/kg/day, an NEL (dog [10]) of under 1 mg/kg/day and an NOAEL (dog [10]) of at least 1 mg/kg/day. It also gave an LEL (rat [11]; [20]) of 1 mg/kg/day, an NEL (rat [11]; [20]) of under 1 mg/kg/day and an LOAEL (rat [11]; [21]) of over 300 mg/kg/day. For the same molecule, the NOAEL (rat [11]; [21]) was at least 300 mg/kg/day.
